For one experiment, the target named is T1, LRRK2^KW (Homo sapiens, UniProt Q5S007).
T1 construct: LRRK2 R1847 to E2527; His6-Z-tag (TEV cleavable) (N, cleaved yes); host or cells: Sf9 insect cells (baculovirus)
T1 sequence (Q5S007 1847-2527): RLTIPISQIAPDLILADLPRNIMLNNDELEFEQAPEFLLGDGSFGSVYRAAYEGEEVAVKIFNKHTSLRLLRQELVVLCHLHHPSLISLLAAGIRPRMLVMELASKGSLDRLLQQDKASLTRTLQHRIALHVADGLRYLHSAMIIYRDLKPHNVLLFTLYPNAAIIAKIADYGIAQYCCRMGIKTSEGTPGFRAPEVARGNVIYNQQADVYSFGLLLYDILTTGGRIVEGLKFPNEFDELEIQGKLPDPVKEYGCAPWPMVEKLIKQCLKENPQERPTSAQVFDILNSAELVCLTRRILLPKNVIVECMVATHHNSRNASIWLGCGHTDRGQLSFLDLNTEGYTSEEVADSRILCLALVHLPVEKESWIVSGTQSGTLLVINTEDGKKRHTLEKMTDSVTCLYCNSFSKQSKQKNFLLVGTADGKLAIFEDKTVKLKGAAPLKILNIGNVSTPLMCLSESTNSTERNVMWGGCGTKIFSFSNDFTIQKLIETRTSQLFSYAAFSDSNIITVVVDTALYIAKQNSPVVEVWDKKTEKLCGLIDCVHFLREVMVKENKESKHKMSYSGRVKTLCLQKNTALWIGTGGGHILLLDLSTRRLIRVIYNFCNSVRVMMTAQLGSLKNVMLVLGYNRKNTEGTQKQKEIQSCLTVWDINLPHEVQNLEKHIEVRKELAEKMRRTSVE
Kind of experiment: DSF thermal stabilization of LRRK2^KW. To be noted: DSF, LRRK2^KW, 10 μM inhibitor. In kind it is binding. In a few lines:
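DSF on 4 μM LRRK2^KW in 20 mM Hepes pH 7.4, 150 mM NaCl, 0.5 mM TCEP, 0.5% glycerol, 20 μM GDP, 2.5 mM MgCl2 with SYPRO Orange; inhibitor at 10 μM. Tm was taken as the minimum of the first derivative of fluorescence versus temperature, relative to control.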

For the next experiment, the target named is T2, LRRK2^RCKW (Homo sapiens, UniProt Q5S007).
T2 construct: LRRK2 R1327 to E2527; His6-Z-tag (TEV cleavable) (N, cleaved yes); host or cells: Sf9 insect cells (baculovirus)
T2 sequence (Q5S007 1327-2527): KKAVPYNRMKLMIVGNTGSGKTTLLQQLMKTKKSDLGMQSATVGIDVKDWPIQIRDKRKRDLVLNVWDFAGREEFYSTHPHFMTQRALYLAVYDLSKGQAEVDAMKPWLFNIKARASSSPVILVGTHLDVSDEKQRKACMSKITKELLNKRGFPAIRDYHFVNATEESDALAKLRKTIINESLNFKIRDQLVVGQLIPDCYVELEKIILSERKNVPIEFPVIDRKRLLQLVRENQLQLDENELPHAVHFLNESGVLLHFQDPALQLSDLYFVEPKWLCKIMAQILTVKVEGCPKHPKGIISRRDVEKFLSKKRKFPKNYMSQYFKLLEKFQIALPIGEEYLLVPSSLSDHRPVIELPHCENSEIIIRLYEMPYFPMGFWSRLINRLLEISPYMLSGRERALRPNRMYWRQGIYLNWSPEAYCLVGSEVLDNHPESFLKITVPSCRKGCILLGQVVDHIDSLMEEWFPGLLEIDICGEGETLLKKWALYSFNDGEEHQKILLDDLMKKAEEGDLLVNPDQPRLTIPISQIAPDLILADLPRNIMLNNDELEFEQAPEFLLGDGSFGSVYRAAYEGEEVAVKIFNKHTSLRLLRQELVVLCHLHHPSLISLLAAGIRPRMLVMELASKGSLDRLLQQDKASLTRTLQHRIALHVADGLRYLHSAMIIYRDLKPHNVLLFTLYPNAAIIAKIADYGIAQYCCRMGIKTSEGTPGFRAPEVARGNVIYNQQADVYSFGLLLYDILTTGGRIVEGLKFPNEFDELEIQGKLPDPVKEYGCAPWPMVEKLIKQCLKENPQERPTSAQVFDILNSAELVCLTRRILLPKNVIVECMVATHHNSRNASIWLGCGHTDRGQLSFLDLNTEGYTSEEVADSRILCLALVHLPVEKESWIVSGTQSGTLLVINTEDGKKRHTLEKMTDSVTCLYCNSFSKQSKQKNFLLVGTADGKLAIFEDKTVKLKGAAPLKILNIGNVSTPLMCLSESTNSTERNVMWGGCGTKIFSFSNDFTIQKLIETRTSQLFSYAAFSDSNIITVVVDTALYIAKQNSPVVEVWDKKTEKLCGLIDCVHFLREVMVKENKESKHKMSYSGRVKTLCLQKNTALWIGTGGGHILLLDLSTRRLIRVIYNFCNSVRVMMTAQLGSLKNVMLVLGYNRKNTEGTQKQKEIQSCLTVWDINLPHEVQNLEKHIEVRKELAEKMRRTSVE
Kind of experiment: Biochemical LRRK2 activity assay (PhosphoSense, AssayQuant SOX peptide AQT0615). As to conditions: for IC50: LRRK2^RCKW kinase activity, in vitro; for normalized response (LRRK2 activity): normalized to 0% (no kinase) and 100% (no inhibitor) control, two singlicate columns per compound. In short, it runs like this:
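Controls lacked protein and compound (0%) or compound only (100%). IC50 derived by nonlinear regression of normalized response versus log[inhibitor].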

The structures appear in SMILES notation. “And” between values parts separate entries of the source, which are not always exact repeats. Equal entries are not always repeated.

The IC50 is the concentration at which inhibition is half-maximal. Higher therefore signals weaker potency. Regarding `O=C(Nc1cccc(-c2c[nH]c3ncnc(N4CCOCC4)c23)c1)C1(C(=O)Nc2ccc(F)c(Cl)c2)CC1` [Compound 18], the “∆Tm (K)” value at LRRK2^KW amounted to 12.3 K. Further, the IC50 against LRRK2^RCKW amounted to 152 ± 44 nM. For the same molecule, the “normalized response (LRRK2 activity)” value was -12.1904% and -14.2894% at LRRK2^RCKW (log[inhibitor(mol)] -5.12494); -3.604% and -4.745% at LRRK2^RCKW (log[inhibitor(mol)] -5.60206); 53.6603% and 67.7094% on LRRK2^RCKW (log[inhibitor(mol)] -6.90309); 89.4919% and 81.5068% on LRRK2^RCKW (log[inhibitor(mol)] -7.30103); 92.5361% and 84.907% on LRRK2^RCKW (log[inhibitor(mol)] -8.09691); 95.9241% and 92.0144% on LRRK2^RCKW (log[inhibitor(mol)] -8.61979). The “normalized response (LRRK2 activity)” value is 91.7935% and 96.8386% on LRRK2^RCKW (log[inhibitor(mol)] -9.09691); 94.1994% and 95.2858% on LRRK2^RCKW (log[inhibitor(mol)] -9.39794).
Turning to `CCc1ccc(NC(=O)C2(C(=O)Nc3cccc(-c4c[nH]c5ncnc(N6CCOCC6)c45)c3)CC2)cc1` [Compound 15], the “∆Tm (K)” value at LRRK2^KW amounted to 9.1 K. For the same molecule, half-maximal inhibition against LRRK2^RCKW (IC50) was put at 960 ± 33 nM. The “normalized response (LRRK2 activity)” value on LRRK2^RCKW (log[inhibitor(mol)] -5.12494) was -0.2711% and -2.401%; at LRRK2^RCKW (log[inhibitor(mol)] -5.60206) it was 22.7451% and 24.0892%; at LRRK2^RCKW (log[inhibitor(mol)] -6.30103), 67.6419% and 69.4402%; at LRRK2^RCKW (log[inhibitor(mol)] -6.90309), 95.7584% and 98.1889%; on LRRK2^RCKW (log[inhibitor(mol)] -7.30103), 103.897% and 98.4037%; at LRRK2^RCKW (log[inhibitor(mol)] -7.60206), 108.801% and 106.855%. Besides, the “normalized response (LRRK2 activity)” value was 103.13% and 100.705% at LRRK2^RCKW (log[inhibitor(mol)] -8.09691); 105.315% and 96.9982% on LRRK2^RCKW (log[inhibitor(mol)] -8.61979); 106.518% and 101.982% at LRRK2^RCKW (log[inhibitor(mol)] -9.09691); 107.174% and 104.775% at LRRK2^RCKW (log[inhibitor(mol)] -9.39794).
In the case of `O=C(Nc1cccc(-c2c[nH]c3ncnc(N4CCOCC4)c23)c1)c1cccn(-c2ccc(F)cc2)c1=O` [Compound 4], the “∆Tm (K)” value on LRRK2^KW worked out at 13.0 K. This molecule also came in with an IC50 at LRRK2^RCKW of 167 ± 4 nM. For the same molecule, the “normalized response (LRRK2 activity)” value is 9.714% and 10.3287% at LRRK2^RCKW (log[inhibitor(mol)] -4.82391); 8.354% and 15.3302% at LRRK2^RCKW (log[inhibitor(mol)] -6.30103); 58.3207% and 57.3774% on LRRK2^RCKW (log[inhibitor(mol)] -6.90309); 76.6433% and 88.9388% on LRRK2^RCKW (log[inhibitor(mol)] -7.30103); 88.7743% and 91.0393% on LRRK2^RCKW (log[inhibitor(mol)] -7.60206); 93.6662% and 93.1068% at LRRK2^RCKW (log[inhibitor(mol)] -8.09691). In addition, the “normalized response (LRRK2 activity)” value was 96.9841% and 102.616% on LRRK2^RCKW (log[inhibitor(mol)] -8.61979); 103.96% and 100.631% at LRRK2^RCKW (log[inhibitor(mol)] -9.09691); 95.5418% and 116.272% at LRRK2^RCKW (log[inhibitor(mol)] -9.39794).
`Cc1ccc(C(=O)Nc2ccc(CN3CCN(C)CC3)c(C(F)(F)F)c2)cc1C#Cc1cnc2[nH]ncc2c1` [GZD-824, reference compound]: the “∆Tm (K)” value on LRRK2^KW was 21.2 ± 2.5 K. In addition, the “normalized response (LRRK2 activity)” value was 37.9506% and 22.443% on LRRK2^RCKW (log[inhibitor(mol)] -4.82391); 2.902% and -0.761% at LRRK2^RCKW (log[inhibitor(mol)] -5.12494); -12.6856% and -11.6517% at LRRK2^RCKW (log[inhibitor(mol)] -6.30103); -14.8328% and -12.1996% on LRRK2^RCKW (log[inhibitor(mol)] -6.90309); -10.7195% and -10.9051% at LRRK2^RCKW (log[inhibitor(mol)] -7.30103); -2.449% and -0.1425% at LRRK2^RCKW (log[inhibitor(mol)] -7.60206). Also, the “normalized response (LRRK2 activity)” value was 77.0511% and 75.7389% at LRRK2^RCKW (log[inhibitor(mol)] -8.09691); 100.887% and 96.9327% at LRRK2^RCKW (log[inhibitor(mol)] -8.61979); 102.124% and 93.9328% at LRRK2^RCKW (log[inhibitor(mol)] -9.09691); 100.847% and 103.781% at LRRK2^RCKW (log[inhibitor(mol)] -9.39794).
On to `COc1cc(S(C)(=O)=O)ccc1Nc1nc(N(C)C)c2c(Cl)c[nH]c2n1` [Compound 37], for which, on LRRK2^RCKW, the IC50 worked out at 7.21 ± 2.1 nM. For the same molecule, the “normalized response (LRRK2 activity)” value on LRRK2^RCKW (log[inhibitor(mol)] -4.82391) was 24.6753% and 13.9482%; on LRRK2^RCKW (log[inhibitor(mol)] -5.12494), 2.952% and 3.194%; on LRRK2^RCKW (log[inhibitor(mol)] -5.60206) it was -7.27% and -5.12%; on LRRK2^RCKW (log[inhibitor(mol)] -6.30103), -12.6171% and -9.349%; at LRRK2^RCKW (log[inhibitor(mol)] -6.90309) it was -7.193% and -5.751%; at LRRK2^RCKW (log[inhibitor(mol)] -7.30103), 5.9468% and 5.579%. The “normalized response (LRRK2 activity)” value was 17.6994% and 24.1378% on LRRK2^RCKW (log[inhibitor(mol)] -7.60206); 34.6729% and 53.1381% at LRRK2^RCKW (log[inhibitor(mol)] -8.09691); 84.0195% and 83.6411% on LRRK2^RCKW (log[inhibitor(mol)] -8.61979); 89.904% and 89.2624% on LRRK2^RCKW (log[inhibitor(mol)] -9.09691); 99.9785% and 100.571% at LRRK2^RCKW (log[inhibitor(mol)] -9.39794).
Molecule `O=C(Nc1ccc(F)cc1)C1(C(=O)Nc2cccc(-c3c[nH]c4ncnc(N5CCOCC5)c34)c2)CC1` [Compound 2] yielded an IC50 on LRRK2^RCKW of 185 ± 10 nM. In addition, the “normalized response (LRRK2 activity)” value at LRRK2^RCKW (log[inhibitor(mol)] -4.82391) was -3.585% and -13.2094%; on LRRK2^RCKW (log[inhibitor(mol)] -5.12494) it was -9.6118% and -10.6428%; on LRRK2^RCKW (log[inhibitor(mol)] -5.60206), -5.033% and -3.426%; at LRRK2^RCKW (log[inhibitor(mol)] -6.30103), 19.2953% and 18.2204%; at LRRK2^RCKW (log[inhibitor(mol)] -6.90309), 61.3205% and 61.6605%; at LRRK2^RCKW (log[inhibitor(mol)] -7.30103), 88.0559% and 79.7364%. Also, the “normalized response (LRRK2 activity)” value on LRRK2^RCKW (log[inhibitor(mol)] -7.60206) is 100.582% and 98.3497%; on LRRK2^RCKW (log[inhibitor(mol)] -8.09691), 94.604% and 97.0225%; at LRRK2^RCKW (log[inhibitor(mol)] -8.61979), 106.516% and 96.1066%; at LRRK2^RCKW (log[inhibitor(mol)] -9.09691), 107.272% and 96.9347%; at LRRK2^RCKW (log[inhibitor(mol)] -9.39794), 103.198% and 102.243%.

The values are drawn from publication PMC12136037, “Type II kinase inhibitors that target Parkinson’s disease–associated LRRK2” (Science Advances, 2025).
